Substitutions are numbered along the chain they refer to.
Assays:
[1] = physchem; conditions: octanol/water
Description: Partition coefficient (logP)

[2] = target: T1, Type-1 angiotensin II receptor (Oryctolagus cuniculus, UniProt P34976); experiment: biochemical
T1 sequence (P34976 whole entry): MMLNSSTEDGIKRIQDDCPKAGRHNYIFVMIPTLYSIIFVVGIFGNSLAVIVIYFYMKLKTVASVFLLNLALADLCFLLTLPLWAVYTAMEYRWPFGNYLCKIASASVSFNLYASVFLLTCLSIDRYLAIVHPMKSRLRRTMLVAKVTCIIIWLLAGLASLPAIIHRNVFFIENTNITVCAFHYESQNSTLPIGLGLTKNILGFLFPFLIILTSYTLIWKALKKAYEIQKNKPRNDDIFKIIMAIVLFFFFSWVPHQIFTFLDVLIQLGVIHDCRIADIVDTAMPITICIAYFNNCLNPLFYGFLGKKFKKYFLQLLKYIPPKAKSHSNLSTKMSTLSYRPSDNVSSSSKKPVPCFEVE
Description: Binding affinity against AT1 receptor in rabbit aorta

[3] = organism: Rattus norvegicus; conditions: dose 1 mg/kg; route intravenous
[4] = target: T2, Type-1 angiotensin II receptor (Homo sapiens, UniProt P30556); experiment: biochemical
T2 sequence (P30556 whole entry): T1 sequence (P34976 whole entry) with M2I, A49V, V254I, V270I, H272R, K311R, S349T, V353A
Description: Binding affinity against AT1 receptor in human adrenal tissue

[5] = target: T3, Angiotensin II receptor (AT-1) type-1 (Rattus norvegicus, UniProt P29089+P25095); experiment: Binding affinity against AT1 receptor in rat adrenal tissue; assay type: tissue-based
T3 sequence (P29089 whole entry): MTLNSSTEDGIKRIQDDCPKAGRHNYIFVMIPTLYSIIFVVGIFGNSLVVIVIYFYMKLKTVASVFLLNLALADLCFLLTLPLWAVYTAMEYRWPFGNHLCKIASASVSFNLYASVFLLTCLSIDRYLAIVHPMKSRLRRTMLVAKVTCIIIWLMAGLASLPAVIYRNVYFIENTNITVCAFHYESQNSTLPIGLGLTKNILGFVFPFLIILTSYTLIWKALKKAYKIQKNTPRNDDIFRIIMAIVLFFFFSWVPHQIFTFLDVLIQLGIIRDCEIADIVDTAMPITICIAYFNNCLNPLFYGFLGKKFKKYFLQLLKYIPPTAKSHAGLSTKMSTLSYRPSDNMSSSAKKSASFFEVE
T3 sequence (P25095 whole entry): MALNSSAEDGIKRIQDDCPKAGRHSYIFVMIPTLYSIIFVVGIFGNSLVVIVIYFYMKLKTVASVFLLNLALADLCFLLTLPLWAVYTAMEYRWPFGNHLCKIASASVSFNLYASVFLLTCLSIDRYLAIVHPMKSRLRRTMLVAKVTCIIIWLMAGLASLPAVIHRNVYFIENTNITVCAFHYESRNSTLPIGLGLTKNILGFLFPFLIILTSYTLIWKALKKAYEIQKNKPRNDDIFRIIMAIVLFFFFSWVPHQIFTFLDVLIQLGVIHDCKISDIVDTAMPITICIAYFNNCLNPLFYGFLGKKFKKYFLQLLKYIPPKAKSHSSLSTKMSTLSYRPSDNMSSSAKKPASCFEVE

[6] = target: Angiotensin II receptor (Rattus norvegicus) (UniProt P29089+P25095+P35351); experiment: Ratio of receptor binding affinity AT2/AT1 in rat adrenal tissue
[7] = target: T4, Angiotensin II receptor (Homo sapiens) (UniProt P30556+P50052); experiment: Ratio of receptor binding affinity AT2/AT1 in human adrenal tissue in th+e presence of 2 mg/ml bovine serum albumin; assay type: protein assay
[8] = Bioavailability in dog (dose of 1.0 mg/kg i.v.) 0.5 hr; assay type: ADME, organism-based, Canis lupus familiaris; conditions: in vivo, iv
[9] = organism: Rattus norvegicus; conditions: dose 1 mg/kg; route oral
[10] = Ratio of receptor binding affinity of compound against rat midbrain tissue (AT2) to that of rabbit aorta (AT1); assay type: tissue-based
[11] = target: T4, Angiotensin II receptor (Homo sapiens); experiment: Ratio of receptor binding affinity AT2/AT1 in human adrenal tissue in the presence of 2 mg/ml bovine serum albumin; assay type: protein assay

T4 sequence (P30556 whole entry, looked up): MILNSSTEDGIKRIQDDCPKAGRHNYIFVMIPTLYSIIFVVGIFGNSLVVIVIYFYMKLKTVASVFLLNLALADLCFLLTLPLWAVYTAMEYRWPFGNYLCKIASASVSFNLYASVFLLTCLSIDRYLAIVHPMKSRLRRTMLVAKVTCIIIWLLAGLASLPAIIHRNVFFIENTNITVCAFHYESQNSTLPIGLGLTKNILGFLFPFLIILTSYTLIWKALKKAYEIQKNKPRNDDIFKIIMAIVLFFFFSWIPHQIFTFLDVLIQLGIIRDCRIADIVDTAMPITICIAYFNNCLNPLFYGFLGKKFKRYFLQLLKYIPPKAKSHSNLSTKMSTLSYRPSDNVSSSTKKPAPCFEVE
T4 sequence (P50052 whole entry, looked up): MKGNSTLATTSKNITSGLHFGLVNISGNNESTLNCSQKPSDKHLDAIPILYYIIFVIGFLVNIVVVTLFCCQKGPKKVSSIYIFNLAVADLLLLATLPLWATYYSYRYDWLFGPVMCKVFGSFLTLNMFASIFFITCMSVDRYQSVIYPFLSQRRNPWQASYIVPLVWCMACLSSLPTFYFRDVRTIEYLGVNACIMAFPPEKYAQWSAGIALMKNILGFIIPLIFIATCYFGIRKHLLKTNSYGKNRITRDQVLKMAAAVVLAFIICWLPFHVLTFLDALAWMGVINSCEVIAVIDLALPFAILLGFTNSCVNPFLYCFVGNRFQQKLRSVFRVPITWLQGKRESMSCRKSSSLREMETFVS

Row | Structure (SMILES) | logP [1] | IC50 [2] | Duration [3] | further results
1 | Cn1nnnc1-c1ccccc1-c1ccc(Cn2cnc3ccc(N(Cc4ccccc4)C(=O)c4cccnc4)cc3c2=O)cc1 | 3.7 | 11 nM | – | –
2 | Cn1nnnc1-c1ccccc1-c1ccc(Cn2cnc3ccc(N(Cc4ccccn4)C(=O)c4ccncc4)cc3c2=O)cc1 | 2.7 | 9.7 nM | <3 h | IC50 [4]: 4.4 nM; IC50 [5]: 2.9 nM; Ratio [6]: 1.6; Ratio [7]: 2.3; Duration [9]: <3 h
3 | CCCCCN(C(=O)c1ccc(OCc2ccccc2)cc1)c1ccc2ncn(Cc3ccc(-c4ccccc4-c4nnnn4C)cc3)c(=O)c2c1 | > 5.7 | 8.4 nM | – | –
4 | CCCCCN(C(=O)c1ccc(SC)cc1)c1ccc2ncn(Cc3ccc(-c4ccccc4-c4nnnn4C)cc3)c(=O)c2c1 | – | 6.4 nM | – | –
5 | CCCCCN(Cc1ccccc1)c1ccc2ncn(Cc3ccc(-c4ccccc4-c4nnnn4C)cc3)c(=O)c2c1 | – | 20 nM | – | –
6 | CCCCS(=O)(=O)N(Cc1ccccc1)c1ccc2ncn(Cc3ccc(-c4ccccc4-c4nnnn4C)cc3)c(=O)c2c1 | – | 23 nM | – | –
7 | Cn1nnnc1-c1ccccc1-c1ccc(Cn2cnc3ccc(N(CCCC(=O)O)C(=O)c4ccccc4)cc3c2=O)cc1 | 2.3 | 9.5 nM | – | –
8 | CCCCCN(C(=O)c1ccc([S+](C)[O-])cc1)c1ccc2ncn(Cc3ccc(-c4ccccc4-c4nnnn4C)cc3)c(=O)c2c1 (stereo not given) | 4.3 | 21 nM | <3 h | –
9 | Cn1nnnc1-c1ccccc1-c1ccc(Cn2cnc3ccc(N(Cc4ccccc4)C(=O)c4ccccn4)cc3c2=O)cc1 | 3.8 | 9.3 nM | – | –
10 | CCCCCN(C(=O)c1ccc(S(C)(=O)=O)cc1)c1ccc2ncn(Cc3ccc(-c4ccccc4-c4nnnn4C)cc3)c(=O)c2c1 | 4.4 | 7.2 nM | – | –
11 | Cn1nnnc1-c1ccccc1-c1ccc(Cn2cnc3ccc(N(Cc4ccccn4)C(=O)c4ccccc4)cc3c2=O)cc1 | 3.6 | 6.7 nM | – | IC50 [4]: 5.09 nM; IC50 [5]: 1.3 nM; Ratio [6]: 0.5; Ratio [7]: 0.2
12 | Cn1nnnc1-c1ccccc1-c1ccc(Cn2cnc3ccc(N(Cc4ccc(C(=O)O)cc4)C(=O)c4ccccc4)cc3c2=O)cc1 | 2.4 | 6.5 nM | – | –
13 | Cn1nnnc1-c1ccccc1-c1ccc(Cn2cnc3ccc(N(Cc4ccccn4)C(=O)c4ccco4)cc3c2=O)cc1 | 3.2 | 7.5 nM | >3 h | IC50 [4]: 10.6 nM; IC50 [5]: 2.1 nM; Ratio [6]: 0.3; Ratio [7]: 0.3; Duration [9]: <3 h
14 | Cn1nnnc1-c1ccccc1-c1ccc(Cn2cnc3ccc(N(Cc4ccncc4)C(=O)c4ccccc4)cc3c2=O)cc1 | 3.4 | 5.5 nM | – | –
15 | Cn1nnnc1-c1ccccc1-c1ccc(Cn2cnc3ccc(N(CC(=O)c4ccco4)C(=O)c4ccccc4)cc3c2=O)cc1 | – | 18.5 nM | – | –

The next molecules have a lower IC50 [2] than those just listed; values first:

Row | logP [1] | IC50 [2] | Structure (SMILES) | Duration [3] | further results
16 | 4.3 | 2.8 nM | CCCCCN(C(=O)c1ccncc1)c1ccc2ncn(Cc3ccc(-c4ccccc4-c4nnnn4C)cc3)c(=O)c2c1 | >3 h | –
17 | 4.4 | 3.9 nM | COC(=O)c1ccc(CN(C(=O)c2ccccc2)c2ccc3ncn(Cc4ccc(-c5ccccc5-c5nnnn5C)cc4)c(=O)c3c2)cc1 | <3 h | IC50 [4]: 9.6 nM; IC50 [5]: 0.8 nM; Ratio [6]: 1.9; Ratio [7]: 1.7
18 | 4.3 | 1.9 nM | CCCN(C(=O)c1ccc(F)cc1)c1ccc2ncn(Cc3ccc(-c4ccccc4-c4nnnn4C)cc3)c(=O)c2c1 | – | –
19 | – | 2.5 nM | Cn1nnnc1-c1ccccc1-c1ccc(Cn2cnc3ccc(N(C(=O)c4ccccc4)c4ccccc4)cc3c2=O)cc1 | – | –
20 | 4.1 | 2.3 nM | CCOC(=O)CCCN(C(=O)c1ccccc1)c1ccc2ncn(Cc3ccc(-c4ccccc4-c4nnnn4C)cc3)c(=O)c2c1 | – | –
21 | 5.1 | 1.7 nM | CCCCCN(C(=O)c1ccccc1)c1ccc2ncn(Cc3ccc(-c4ccccc4-c4nnnn4C)cc3)c(=O)c2c1 | >3 h | IC50 [4]: 6.9 nM; bioavailability [8]: 73%; Ratio [7]: 1; Duration [9]: >3 h
22 | 3.6 | 4.9 nM | Cn1nnnc1-c1ccccc1-c1ccc(Cn2cnc3ccc(N(Cc4ccc(O)cc4)C(=O)c4ccccc4)cc3c2=O)cc1 | – | IC50 [4]: 6 nM; IC50 [5]: 0.5 nM; Ratio [6]: 1.5; Ratio [7]: 0.8
23 | – | 2.6 nM | Cn1nnnc1-c1ccccc1-c1ccc(Cn2cnc3ccc(N(CCCCO)C(=O)c4ccccc4)cc3c2=O)cc1 | – | –
24 | 3.3 | 1.3 nM | CC(=O)OCCCCN(C(=O)c1ccccc1)c1ccc2ncn(Cc3ccc(-c4ccccc4-c4nnnn4C)cc3)c(=O)c2c1 | – | –
25 | 3.9 | 1.6 nM | CCOCCN(C(=O)c1ccccc1)c1ccc2ncn(Cc3ccc(-c4ccccc4-c4nnnn4C)cc3)c(=O)c2c1 | – | –
26 | 4.3 | 4.5 nM | CCCCCN(C(=O)c1cccnc1)c1ccc2ncn(Cc3ccc(-c4ccccc4-c4nnnn4C)cc3)c(=O)c2c1 | <3 h | –
27 | 3.6 | 2.2 nM | COCCOCCN(C(=O)c1ccccc1)c1ccc2ncn(Cc3ccc(-c4ccccc4-c4nnnn4C)cc3)c(=O)c2c1 | – | –
28 | 4.7 | 0.9 nM | CCCCCN(C(=O)c1ccc(O)cc1)c1ccc2ncn(Cc3ccc(-c4ccccc4-c4nnnn4C)cc3)c(=O)c2c1 | >3 h | IC50 [4]: 4.9 nM; IC50 [5]: 0.5 nM; Ratio [6]: 3.1; Ratio [7]: 5.8
29 | 3.7 | 3.4 nM | Cn1nnnc1-c1ccccc1-c1ccc(Cn2cnc3ccc(N(Cc4ccccc4)C(=O)c4ccncc4)cc3c2=O)cc1 | – | –
30 | 4.2 | 1.2 nM | CCCCN(C(=O)c1ccc(O)cc1)c1ccc2ncn(Cc3ccc(-c4ccccc4-c4nnnn4C)cc3)c(=O)c2c1 | >3 h | IC50 [4]: 4 nM; IC50 [5]: 0.3 nM; Ratio [6]: 17; Ratio [7]: 6.8
31 | 5.2 | 1.7 nM | CCCCCN(C(=O)c1ccc(F)cc1)c1ccc2ncn(Cc3ccc(-c4ccccc4-c4nnnn4C)cc3)c(=O)c2c1 | – | –
32 | 2.9 | 2.2 nM | CCCCN(C(=O)c1ccc(OP(=O)([O-])[O-])cc1)c1ccc2ncn(Cc3ccc(-c4ccccc4-c4nnnn4C)cc3)c(=O)c2c1.[Na+].[Na+] | >3 h | IC50 [4]: 21.4 nM; IC50 [5]: 3.9 nM; Ratio [6]: 5.4; Ratio [10]: 1.9; Ratio [11]: 10.9; Duration [9]: <3 h
33 | 4.5 | 4.6 nM | Cn1nnnc1-c1ccccc1-c1ccc(Cn2cnc3ccc(N(Cc4ccccc4)C(=O)c4ccccc4)cc3c2=O)cc1 | <3 h | IC50 [5]: 0.6 nM; Ratio [6]: 0.1
34 | 5 | 1.1 nM | CCCCCN(C(=O)c1ccccc1OC)c1ccc2ncn(Cc3ccc(-c4ccccc4-c4nnnn4C)cc3)c(=O)c2c1 | – | –
35 | – | 3.2 nM | CCCCCN(C(=O)c1ccco1)c1ccc2ncn(Cc3ccc(-c4ccccc4-c4nnnn4C)cc3)c(=O)c2c1 | <3 h | –
36 | 4.7 | 2.3 nM | CCCCN(C(=O)c1ccc(F)cc1)c1ccc2ncn(Cc3ccc(-c4ccccc4-c4nnnn4C)cc3)c(=O)c2c1 | – | –
37 | 5.4 | 2.4 nM | CCCCC(=O)N(Cc1ccccc1)c1ccc2ncn(Cc3ccc(-c4ccccc4-c4nnnn4C)cc3)c(=O)c2c1 | >3 h | IC50 [4]: 5.7 nM; Ratio [7]: 0.1; Duration [9]: >3 h

From ChEMBL document CHEMBL1128754, “The SAR of 6-(N-alkyl-N-acyl)-2-propyl-3-[(2-tetrazol-5-yl)biphen-4-yl)methyl]-quinazolinones as balanced affinity antagonists of the human AT1 and AT2 receptors” (Bioorg Med Chem Lett, 1995)
